From EP1171107B1, “USE OF A PHARMACEUTICAL COMPOSITION IN THE MANUFACTURE OF A MEDICAMENT FOR THE TREATMENT OF PATHOLOGICAL CONDITIONS OF THE EYE CAUSED BY BACTERIA, VIRUSES, FUNGI, YEASTS AND PROTOZOA” (Dr. GERHARD MANN chem.-pharm. Fabrik GmbH, priority 1999, dated 2000)

Columns and labels:
Assay type in all cases: cell-based
E.coli [1] = assay: Quantitative germ count (re-isolation, surface method) after inoculating the test preparation; conditions: Ausgangskeimzahl 2,7 x 10^5 KBE/ml
H.influenzae [2] = assay: as above; conditions: Ausgangskeimzahl 2,8 x 10^5 KBE/ml
Procedure, shortened: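 Surviving germs were counted by the surface method: an aliquot was spiral-plated on Kochblut-Agar and incubated at 33±2°C for max. 4 Tage, giving re-isolated counts in KBE/ml with a detection limit of 100 KBE/ml. Initial germ counts were also set by spiral-plater surface plating. The H. influenzae strain was pretested biochemically for identity and purity.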

S.aureus [3] = assay: as above; conditions: Ausgangskeimzahl 2,6 x 10^5 KBE/ml
Procedure, shortened: (§1)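 Test preparations were contaminated with ca. 10^5 CFU/ml of each strain, then sampled at 2, 6, 8, 24, 32, 48 and 72 h. Cells were centrifuged 10 min at 3000 rpm, washed in NaCl-peptone buffer, resuspended and spiral-plated on Caso agar at 33±2°C for max. 4 days. Detection limit was 100 CFU/ml.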

Sc. pneumoniae [4] = assay: as above; conditions: Ausgangskeimzahl 3,7 x 10^5 KBE/ml
Procedure, shortened: as §1

P.aeruginosa [5] = assay: as above; conditions: Ausgangskeimzahl 2,7 x 10^5 KBE/ml
Procedure, shortened: as §1

E.coli [6] = assay: Qualitative examination: enrichment of the inoculated test preparation in broth
Procedure, shortened: (§2)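 Test preparations (5 ml) were inoculated with ca. 10^5 CFU/ml and sampled after 2, 6, 8, 24, 32, 48 and 72 h. Cells were pelleted, washed and resuspended in NaCl-peptone buffer; 2 ml went into 20 ml Caso broth (Fildes medium for H. influenzae), incubated up to 4 days at 33±2°C.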

S.aureus [7] = assay: as above
Procedure, shortened: as §2

S.epidermidis = assay: as above
Procedure, shortened: as §2

Sc. pneumoniae [8] = assay: as above
Procedure, shortened: as §2

H.influenzae [9] = assay: as above
Procedure, shortened: as §2

P.aeruginosa [10] = assay: as above
Procedure, shortened: as §2

Question: Which results are given for CCCCCCCCCCCC[N+](C)(C)Cc1ccccc1 [Benzalkoniumchlorid 0,005 Gew.-%, Benzododeciniumchlorid]?
Answer: Ergebnis der Reisolierung (in KBE/ml) (E.coli [1]; 2 h after inoculation): <100 KBE/ml; Ergebnis der Reisolierung (in KBE/ml) (E.coli [1]; 4 h after inoculation): <100 KBE/ml; Ergebnis der Reisolierung (in KBE/ml) (E.coli [1]; 6 h after inoculation): <100 KBE/ml; Ergebnis der Reisolierung (in KBE/ml) (E.coli [1]; 8 h after inoculation): <100 KBE/ml; Ergebnis der Reisolierung (in KBE/ml) (E.coli [1]; 24 h after inoculation): <100 KBE/ml; Ergebnis der Reisolierung (in KBE/ml) (E.coli [1]; 32 h after inoculation): <100 KBE/ml; Ergebnis der Reisolierung (in KBE/ml) (E.coli [1]; 48 h after inoculation): <100 KBE/ml; Ergebnis der Reisolierung (in KBE/ml) (E.coli [1]; 72 h after inoculation): <100 KBE/ml; Ergebnis der Reisolierung (in KBE/ml) (H.influenzae [2]; 2 h after inoculation): <100 KBE/ml; Ergebnis der Reisolierung (in KBE/ml) (H.influenzae [2]; 4 h after inoculation): <100 KBE/ml; Ergebnis der Reisolierung (in KBE/ml) (H.influenzae [2]; 6 h after inoculation): <100 KBE/ml; Ergebnis der Reisolierung (in KBE/ml) (H.influenzae [2]; 8 h after inoculation): <100 KBE/ml; Ergebnis der Reisolierung (in KBE/ml) (H.influenzae [2]; 24 h after inoculation): <100 KBE/ml; Ergebnis der Reisolierung (in KBE/ml) (H.influenzae [2]; 32 h after inoculation): <100 KBE/ml; Ergebnis der Reisolierung (in KBE/ml) (H.influenzae [2]; 48 h after inoculation): <100 KBE/ml; Ergebnis der Reisolierung (in KBE/ml) (H.influenzae [2]; 72 h after inoculation): <100 KBE/ml; Ergebnis der Reisolierung (in KBE/ml) (S.aureus [3]; 2 h after inoculation): <100 KBE/ml; Ergebnis der Reisolierung (in KBE/ml) (S.aureus [3]; 4 h after inoculation): <100 KBE/ml; Ergebnis der Reisolierung (in KBE/ml) (S.aureus [3]; 6 h after inoculation): <100 KBE/ml; Ergebnis der Reisolierung (in KBE/ml) (S.aureus [3]; 8 h after inoculation): <100 KBE/ml; Ergebnis der Reisolierung (in KBE/ml) (S.aureus [3]; 24 h after inoculation): <100 KBE/ml; Ergebnis der Reisolierung (in KBE/ml) (S.aureus [3]; 32 h after inoculation): <100 KBE/ml; Ergebnis der Reisolierung (in KBE/ml) (S.aureus [3]; 48 h after inoculation): <100 KBE/ml; Ergebnis der Reisolierung (in KBE/ml) (S.aureus [3]; 72 h after inoculation): <100 KBE/ml; Ergebnis der Reisolierung (in KBE/ml) (Sc. pneumoniae [4]; 2 h after inoculation): <100 KBE/ml; Ergebnis der Reisolierung (in KBE/ml) (Sc. pneumoniae [4]; 4 h after inoculation): <100 KBE/ml; Ergebnis der Reisolierung (in KBE/ml) (Sc. pneumoniae [4]; 6 h after inoculation): <100 KBE/ml; Ergebnis der Reisolierung (in KBE/ml) (Sc. pneumoniae [4]; 8 h after inoculation): <100 KBE/ml; Ergebnis der Reisolierung (in KBE/ml) (Sc. pneumoniae [4]; 24 h after inoculation): <100 KBE/ml; Ergebnis der Reisolierung (in KBE/ml) (Sc. pneumoniae [4]; 32 h after inoculation): <100 KBE/ml; Ergebnis der Reisolierung (in KBE/ml) (Sc. pneumoniae [4]; 48 h after inoculation): <100 KBE/ml; Ergebnis der Reisolierung (in KBE/ml) (Sc. pneumoniae [4]; 72 h after inoculation): <100 KBE/ml; Ergebnis der Reisolierung (in KBE/ml) (P.aeruginosa [5]; 2 h after inoculation): <100 KBE/ml; Ergebnis der Reisolierung (in KBE/ml) (P.aeruginosa [5]; 4 h after inoculation): <100 KBE/ml; Ergebnis der Reisolierung (in KBE/ml) (P.aeruginosa [5]; 6 h after inoculation): <100 KBE/ml; Ergebnis der Reisolierung (in KBE/ml) (P.aeruginosa [5]; 8 h after inoculation): <100 KBE/ml; Ergebnis der Reisolierung (in KBE/ml) (P.aeruginosa [5]; 24 h after inoculation): <100 KBE/ml; Ergebnis der Reisolierung (in KBE/ml) (P.aeruginosa [5]; 32 h after inoculation): <100 KBE/ml; Ergebnis der Reisolierung (in KBE/ml) (P.aeruginosa [5]; 48 h after inoculation): <100 KBE/ml; Ergebnis der Reisolierung (in KBE/ml) (P.aeruginosa [5]; 72 h after inoculation): <100 KBE/ml; Ergebnis der Reisolierung qualitiativ (+/-) nach Anreicherung (E.coli [6]; 2 h after inoculation): -; Ergebnis der Reisolierung qualitiativ (+/-) nach Anreicherung (E.coli [6]; 4 h after inoculation): -; Ergebnis der Reisolierung qualitiativ (+/-) nach Anreicherung (E.coli [6]; 6 h after inoculation): -; Ergebnis der Reisolierung qualitiativ (+/-) nach Anreicherung (E.coli [6]; 8 h after inoculation): -; Ergebnis der Reisolierung qualitiativ (+/-) nach Anreicherung (E.coli [6]; 24 h after inoculation): -; Ergebnis der Reisolierung qualitiativ (+/-) nach Anreicherung (E.coli [6]; 32 h after inoculation): -; Ergebnis der Reisolierung qualitiativ (+/-) nach Anreicherung (E.coli [6]; 48 h after inoculation): -; Ergebnis der Reisolierung qualitiativ (+/-) nach Anreicherung (E.coli [6]; 72 h after inoculation): -; Ergebnis der Reisolierung qualitiativ (+/-) nach Anreicherung (S.aureus [7]; 2 h after inoculation): -; Ergebnis der Reisolierung qualitiativ (+/-) nach Anreicherung (S.aureus [7]; 4 h after inoculation): -; Ergebnis der Reisolierung qualitiativ (+/-) nach Anreicherung (S.aureus [7]; 6 h after inoculation): -; Ergebnis der Reisolierung qualitiativ (+/-) nach Anreicherung (S.aureus [7]; 8 h after inoculation): -; Ergebnis der Reisolierung qualitiativ (+/-) nach Anreicherung (S.aureus [7]; 24 h after inoculation): -; Ergebnis der Reisolierung qualitiativ (+/-) nach Anreicherung (S.aureus [7]; 32 h after inoculation): -; Ergebnis der Reisolierung qualitiativ (+/-) nach Anreicherung (S.aureus [7]; 48 h after inoculation): -; Ergebnis der Reisolierung qualitiativ (+/-) nach Anreicherung (S.aureus [7]; 72 h after inoculation): -; Ergebnis der Reisolierung qualitiativ (+/-) nach Anreicherung (S.epidermidis; 2 h after inoculation): -; Ergebnis der Reisolierung qualitiativ (+/-) nach Anreicherung (S.epidermidis; 4 h after inoculation): -; Ergebnis der Reisolierung qualitiativ (+/-) nach Anreicherung (S.epidermidis; 6 h after inoculation): -; Ergebnis der Reisolierung qualitiativ (+/-) nach Anreicherung (S.epidermidis; 8 h after inoculation): -; Ergebnis der Reisolierung qualitiativ (+/-) nach Anreicherung (S.epidermidis; 24 h after inoculation): -; Ergebnis der Reisolierung qualitiativ (+/-) nach Anreicherung (S.epidermidis; 32 h after inoculation): -; Ergebnis der Reisolierung qualitiativ (+/-) nach Anreicherung (S.epidermidis; 48 h after inoculation): -; Ergebnis der Reisolierung qualitiativ (+/-) nach Anreicherung (S.epidermidis; 72 h after inoculation): -; Ergebnis der Reisolierung qualitiativ (+/-) nach Anreicherung (Sc. pneumoniae [8]; 2 h after inoculation): -; Ergebnis der Reisolierung qualitiativ (+/-) nach Anreicherung (Sc. pneumoniae [8]; 4 h after inoculation): -; Ergebnis der Reisolierung qualitiativ (+/-) nach Anreicherung (Sc. pneumoniae [8]; 6 h after inoculation): -; Ergebnis der Reisolierung qualitiativ (+/-) nach Anreicherung (Sc. pneumoniae [8]; 8 h after inoculation): -; Ergebnis der Reisolierung qualitiativ (+/-) nach Anreicherung (Sc. pneumoniae [8]; 24 h after inoculation): -; Ergebnis der Reisolierung qualitiativ (+/-) nach Anreicherung (Sc. pneumoniae [8]; 32 h after inoculation): -; Ergebnis der Reisolierung qualitiativ (+/-) nach Anreicherung (Sc. pneumoniae [8]; 48 h after inoculation): -; Ergebnis der Reisolierung qualitiativ (+/-) nach Anreicherung (Sc. pneumoniae [8]; 72 h after inoculation): -; Ergebnis der Reisolierung qualitiativ (+/-) nach Anreicherung (H.influenzae [9]; 2 h after inoculation): -; Ergebnis der Reisolierung qualitiativ (+/-) nach Anreicherung (H.influenzae [9]; 4 h after inoculation): -; Ergebnis der Reisolierung qualitiativ (+/-) nach Anreicherung (H.influenzae [9]; 6 h after inoculation): -; Ergebnis der Reisolierung qualitiativ (+/-) nach Anreicherung (H.influenzae [9]; 8 h after inoculation): -; Ergebnis der Reisolierung qualitiativ (+/-) nach Anreicherung (H.influenzae [9]; 24 h after inoculation): -; Ergebnis der Reisolierung qualitiativ (+/-) nach Anreicherung (H.influenzae [9]; 32 h after inoculation): -; Ergebnis der Reisolierung qualitiativ (+/-) nach Anreicherung (H.influenzae [9]; 48 h after inoculation): -; Ergebnis der Reisolierung qualitiativ (+/-) nach Anreicherung (H.influenzae [9]; 72 h after inoculation): -; Ergebnis der Reisolierung qualitiativ (+/-) nach Anreicherung (P.aeruginosa [10]; 2 h after inoculation): -; Ergebnis der Reisolierung qualitiativ (+/-) nach Anreicherung (P.aeruginosa [10]; 4 h after inoculation): -; Ergebnis der Reisolierung qualitiativ (+/-) nach Anreicherung (P.aeruginosa [10]; 6 h after inoculation): -; Ergebnis der Reisolierung qualitiativ (+/-) nach Anreicherung (P.aeruginosa [10]; 8 h after inoculation): -; Ergebnis der Reisolierung qualitiativ (+/-) nach Anreicherung (P.aeruginosa [10]; 24 h after inoculation): -; Ergebnis der Reisolierung qualitiativ (+/-) nach Anreicherung (P.aeruginosa [10]; 32 h after inoculation): -; Ergebnis der Reisolierung qualitiativ (+/-) nach Anreicherung (P.aeruginosa [10]; 48 h after inoculation): -; Ergebnis der Reisolierung qualitiativ (+/-) nach Anreicherung (P.aeruginosa [10]; 72 h after inoculation): -
